For three molecules, speed of sound results are on record in the NIST ThermoML archive (doi:10.1016/j.jct.2013.05.003).

± gives the expanded uncertainty stated by the source.

For data set [1] the following is noted: 101.3 kPa, Liquid, Sing-around technique in a fixed-path interferometer.
Data set [2] is described as follows: xn = mol fraction of the nth substance listed. Particulars: 283.15 K; 101.3 kPa; Liquid; fixed-path interferometer; x2 = 0.

As a reminder, the speed of sound is how fast a sound wave travels through the sample. As to `CCOCCCN` [3-ethoxy-1-propanamine], the speed of sound in data set [1] (283.15 K) worked out at 1386.4 ± 1.6 m/s; in data set [1] (288.15 K), 1364.2 ± 1.6 m/s; in data set [1] (293.15 K), 1342 ± 1.6 m/s; in data set [1] (298.15 K), 1321.2 ± 1.6 m/s; in data set [1] (303.15 K), 1300.4 ± 1.6 m/s.

Take `O` [water]: the speed of sound in data set [1] (283.15 K) stood at 1447.3 ± 1.3 m/s.

As for `O` [water] + CCOCCCN, the speed of sound in data set [2] is 1447.3 ± 1.3 m/s.
